Laboratory results as given in patent US7446107B2, “Crystalline forms of conazoles and methods of making and using the same” (Transform Pharmaceuticals, Inc., priority 2002, dated 2008).

Key:
[1] = Solubility in pH 1 buffer (HPLC-UV); assay type: physicochemical
Experimental: Beginning with the longest time point, pH 1 buffer (1 N HCl adjusted to pH 1 using 1 N NaOH) was added to each of the wells containing samples until completion of the shortest time points. The samples were vigorously stirred throughout the experiment. At the end of the assay, the solution and solid states of all the samples were separated by centrifugation in a polyvinylidene fluoride 96-well filter plate for 2 minutes at 500 xg.
Approximately 30 μl of solution was collected from the solution state of each sample and diluted in 120 μl of methanol in glass vials. Aluminum caps were crimped on the vial tops to prevent evaporation of methanol.

[2] = cited from earlier work
[3] = Hygroscopicity determination (humidity chambers); assay type: physicochemical; settings: 75% relative humidity, 25° C., 8 hours
Experimental: The hygroscopicity profiles for a sample from each of vials 1-5, as well as cis-itraconazole free base, were determined by exposing a sample from each of vials 1-5 to four different environments of varying relative humidity (namely, 0%, 30%, 57%, and 75%), and incubating the samples in that environment for about 8 hours at room temperature (20-25° C.). The humidity chambers consisted of desiccators with desiccants/salt baths in the bottom, above which the open vials containing samples were suspended.
The relative hygroscopicity of each sample was determined using methods well known to one skilled in the pharmaceutical arts as reported in “Pharmaceutical Preformulation & Formulation: A Practical Guide From Candidate Drug Selection to Commercial Dosage Form,” Ed. Mark Gibson, published by IHS Health Group Co, p. 49 (2001), which is incorporated herein by reference in its entirety.

[4] = Physical form after incubation in pH 1 buffer (PXRD); assay type: physicochemical; settings: 2 hours, room temperature
Experimental: 70 μl of pH 1 buffer (1 N HCl adjusted to pH 1 using 1 N NaOH) was added to the same well. The sample was incubated at room temperature with vigorous mixing for 2 hours. At the end of the assay, the 384 well plate was centrifuged for 2 minutes at 500 xg and the supernatant was removed by aspiration.
The remaining solid state was analyzed by X-ray powder diffraction in a borosilicate tube, but otherwise using the same equipment, software, procedures, and parameters described in Example 1.

[5] = Solubility in THF (observation during synthesis); assay type: physicochemical; settings: up to 70° C.
Description: Thereafter, the vials were removed from the oven, the caps from all the bottles were removed, and the samples were allowed to evaporate in air under ambient conditions. Once significant amounts of solids were present in a sample, the remaining liquid in the sample was removed by pipetting out the liquid phase and using suction filtration with Whatman filter paper to rescue any solid that may have been dispersed in the liquid phase. The remaining solid in the liquid phase and the filtrate were dried in the vacuum oven (VWR Scientific, Model # 1400E) under vacuum for at least 12 hours. With regard to vial 3, the solid crashed out of solution as soon as the acid was added and never went into solution even at 70° C.; however, the solid in the sample was harvested in the same manner as the other samples.

In the case of `CCC(C)n1ncn(-c2ccc(N3CCN(c4ccc(OC[C@H]5CO[C@](Cn6cncn6)(c6ccc(Cl)cc6Cl)O5)cc4)CC3)cc2)c1=O` (mixture of isomers) [cis-itraconazole free base, (±)cis-4-[4-[4-[4-[[2-(2,4-dichlorophenyl)-2-(1H-1,2,4-triazol-1-ylmethyl)-1,3-dioxolan-4-yl]methoxy]phenyl]-1-piperazinyl]phenyl]-2,4-dihydro-2-(1-methylpropyl)-3H-1,2,4-triazol-3-one, reference compound], the “change of solubility with time” value ([1]; measured period up to 120 minutes) is given as “did not change over the measured period of time” and the solubility in water [2] is given as “only very sparingly soluble in water”.

For `CCC(C)n1ncn(-c2ccc(N3CCN(c4ccc(OCC5COC(Cn6cncn6)(c6ccc(Cl)cc6Cl)O5)cc4)CC3)cc2)c1=O.O=C(O)C=CC(=O)O` (stereo not drawn) [cis-itraconazole fumaric acid co-crystal], the relative hygroscopicity [3] was “slightly hygroscopic (greater than 0.2% and less than 2% weight loss after incubation in 75% relative humidity at 25 °C for 8 hours)”, the “solid state form after incubation” value [4] was “did not change form” and the “solubility relative to free base” value ([1]; 15 minutes) was “at least 4 fold”. For the same compound, the “solubility relative to free base” value ([1]; 4 hours) was “approximately 1.5 fold”.

For `CCC(C)n1ncn(-c2ccc(N3CCN(c4ccc(OCC5COC(Cn6cncn6)(c6ccc(Cl)cc6Cl)O5)cc4)CC3)cc2)c1=O.O=S(=O)(O)c1ccccc1` (stereo not drawn) [cis-itraconazole benzensulfonate], the relative hygroscopicity [3] was “hygroscopic (greater than 2% and less than 15% weight loss after incubation in 75% relative humidity at 25 °C for 8 hours)”.

With `CCC(C)n1ncn(-c2ccc(N3CCN(c4ccc(OCC5COC(Cn6cncn6)(c6ccc(Cl)cc6Cl)O5)cc4)CC3)cc2)c1=O.O=S(=O)(O)O` (stereo not drawn) [cis-itraconazole sulfate] the relative hygroscopicity [3] was “hygroscopic (greater than 2% and less than 15% weight loss after incubation in 75% relative humidity at 25 °C for 8 hours)” and the “solubility in THF” value [5] was “insoluble or only slightly soluble in THF”.

For `CCC(C)n1ncn(-c2ccc(N3CCN(c4ccc(OCC5COC(Cn6cncn6)(c6ccc(Cl)cc6Cl)O5)cc4)CC3)cc2)c1=O.O=C(O)C(O)C(O)C(=O)O` (racemic) [cis-itraconazole DL-tartrate], the relative hygroscopicity [3] was “slightly hygroscopic (greater than 0.2% and less than 2% weight loss after incubation in 75% relative humidity at 25 °C for 8 hours)”.

For `CCC(C)n1ncn(-c2ccc(N3CCN(c4ccc(OCC5COC(Cn6cncn6)(c6ccc(Cl)cc6Cl)O5)cc4)CC3)cc2)c1=O.O=P(O)(O)O` (stereo not drawn) [cis-itraconazole phosphate], the relative hygroscopicity [3] was “slightly hygroscopic (greater than 0.2% and less than 2% weight loss after incubation in 75% relative humidity at 25 °C for 8 hours)”.
